Assay results: paper PMC6253998, “Ring-substituted 4-Hydroxy-1H-quinolin-2-ones: Preparation and Biological Activity” (Molecules, 2009)
In brackets after ≈: the same amount, converted by molar mass. Read-outs that look alike come from different tables or passages of the source.

Columns and labels:
[1] = tested on: Trichosporon beigelii 1188; assay: In vitro antifungal broth microdilution test; format: cell-based; details: Trichosporon beigelii, 1188, RPMI 1640, pH 7.0, 35 °C, read-out: MIC/IC80 TB
Description: The broth microdilution test was used for the assessment of in vitro antifungal activity of the synthesized compounds against Candida albicans ATCC 44859 (CA), Candida tropicalis 156 (CT), Candida krusei ATCC 6258 (CK), Candida glabrata 20/I (CG), Trichosporon beigelii 1188 (TB), Aspergillus fumigatus 231 (AF), Absidia corymbifera 272 (AC), and Trichophyton mentagrophytes 445 (TM). Fluconazole (FLU) was used as the standard of a clinically used antimycotic drug. The procedure was performed with twofold dilution of the compounds in RPMI 1640 (Sevapharma a.s., Prague, Czech Republic) buffered to pH 7.0 with 0.165 mol of 3-morpholino-propane-1-sulfonic acid (MOPS, Sigma, Germany). The final concentrations of the compounds ranged from 500 to 0.975 μmol/l. Drug–free controls were included. The MIC was defined as an 80% or greater (IC80) reduction of growth in comparison with the control. The values of MICs were determined after 24 and 48 h of static incubation at 35 °C. For T. mentagrophytes, the final MICs were determined after 72 and 120 h of incubation.

spinach chloroplasts = assay: Inhibition of oxygen evolution rate (OER) / photosynthetic electron transport in spinach chloroplasts; format: biochemical, Spinacia oleracea L.; details: for IC50: DCPIP photoreduction, pH 7.2
Description: Chloroplasts were prepared from spinach (Spinacia oleracea L.) according to Masarovicova and Kralova. The inhibition of photosynthetic electron transport (PET) in spinach chloroplasts was determined spectrophotometrically (Genesys 6, Thermo Scientific, U.S.A.) using an artificial electron acceptor 2,6-dichlorophenol-indophenol (DCPIP) according to Kralova et al. and the rate of photosynthetic electron transport was monitored as a photoreduction of DCPIP. The measurements were carried out in phosphate buffer (0.02 mol/L, pH 7.2) containing sucrose (0.4 mol/L), MgCl2 (0.005 mol/L) and NaCl (0.015 mol/L). The chlorophyll content was 30 mg/L in these experiments and the samples were irradiated (~100 W/m^2) from 10 cm distance with a halogen lamp (250 W) using a 4 cm water filter to prevent warming of the samples (suspension temperature 22 °C). The studied compounds were dissolved in DMSO due to their limited water solubility. […] The inhibitory efficiency of the studied compounds was expressed by IC50 values, i.e. by molar concentration of the compounds causing 50% decrease in the oxygen evolution rate relative to the untreated control.

[2] = Lipophilicity HPLC determination (capacity factor k / log k); format: physicochemical; details: RP-HPLC, C18 column, MeOH 55.0% / H2O 45.0%, isocratic
Description: Hydrophobicities (log P/Clog P values) of the compounds 1-12 were calculated using two commercially available programs and also measured by means of the reversed phase high performance liquid chromatography (RP-HPLC) method for lipophilicity measurement. The procedure was performed under isocratic conditions with methanol as an organic modifier in the mobile phase using an end-capped non-polar C18 stationary RP column. The capacity factors k were determined and subsequent log k values were calculated.
The HPLC separation module Waters Alliance 2695 XE and Waters Photodiode Array Detector 2996 (Waters Corp., Milford, MA, U.S.A.) were used. A Symmetry® C18 5 μm, 4.6 × 250 mm, Part No. WAT054275, (Waters Corp., Milford, MA, U.S.A.) chromatographic column was used. The HPLC separation process was monitored by Millennium32® Chromatography Manager Software, Waters 2004 (Waters Corp., Milford, MA, U.S.A.). The mixture of MeOH p.a. (55.0%) and H2O-HPLC – Mili-Q Grade (45.0%) was used as a mobile phase. The total flow of the column was 0.9 mL/min, injection 30 μL, column temperature 30 °C and sample temperature 10 °C. The detection wavelength 210 nm was chosen. The KI methanolic solution was used for the dead time (TD) determination. Retention times (tR) were measured in minutes. The capacity factors k were calculated using the Millennium32® Chromatography Manager Software according to formula k = (tR - tD) / tD, where tR is the retention time of the solute, whereas tD denotes the dead time obtained via an unretained analyte. Log k, calculated from the capacity factor k, is used as the lipophilicity index converted to log P scale.

[3] = tested on: Candida albicans ATCC 44859; assay: In vitro antifungal broth microdilution test; format: cell-based; details: Candida albicans, ATCC44859, RPMI 1640, pH 7.0, 35 °C, read-out: MIC/IC80 CA
Description: (§1) Fluconazole (FLU) was used as the standard of a clinically used antimycotic drug. The procedure was performed with twofold dilution of the compounds in […]., Prague, Czech Republic) buffered to pH 7.0 with 0.165 mol of 3-morpholino-propane-1-sulfonic acid (MOPS, Sigma, Germany). […] Drug-free controls were included. The MIC was defined as an 80% or greater (IC80) reduction of growth in comparison with the control.

Candida krusei ATCC 6258 = assay: In vitro antifungal broth microdilution test; format: cell-based; details: Pichia kudriavzevii, ATCC6258, RPMI 1640, pH 7.0, 35 °C, read-out: MIC/IC80 CK
Description: as §1

[4] = tested on: Trichophyton mentagrophytes 445; assay: In vitro antifungal broth microdilution test; format: cell-based; details: Trichophyton mentagrophytes, 445, RPMI 1640, pH 7.0, 35 °C, read-out: MIC/IC80 TM
Description: as §1

Candida tropicalis 156 = assay: In vitro antifungal broth microdilution test; format: cell-based; details: Candida tropicalis, 156, RPMI 1640, pH 7.0, 35 °C, read-out: MIC/IC80 CT
Description: as §1

Absidia corymbifera 272 = assay: In vitro antifungal broth microdilution test; format: cell-based; details: Lichtheimia corymbifera, 272, RPMI 1640, pH 7.0, 35 °C, read-out: MIC/IC80 AC
Description: as §1

[5] = tested on: Aspergillus fumigatus 231; assay: In vitro antifungal broth microdilution test; format: cell-based; details: Aspergillus fumigatus, 231, RPMI 1640, pH 7.0, 35 °C, read-out: MIC/IC80 AF
Description: as §1

Candida glabrata 20/I = assay: In vitro antifungal broth microdilution test; format: cell-based; details: Nakaseomyces glabratus, 20/I, RPMI 1640, pH 7.0, 35 °C, read-out: MIC/IC80 CG
Description: as §1

Structure (SMILES)	MIC ([1]; 24h) [µM]	MIC ([1]; 48h) [µM]	OER inhibition effectiveness relative to compound 1 (spinach chloroplasts)	IC50 (spinach chloroplasts) [µM]	log k [2]	MIC ([3]; 24h) [µM]	MIC ([3]; 48h) [µM]	MIC (Candida krusei ATCC 6258; 24h) [µM]	MIC (Candida krusei ATCC 6258; 48h) [µM]	MIC ([4]; 72h) [µM]	MIC ([4]; 120h) [µM]	MIC (Candida tropicalis 156; 24h) [µM]	MIC (Candida tropicalis 156; 48h) [µM]	MIC (Absidia corymbifera 272; 24h) [µM]	MIC (Absidia corymbifera 272; 48h) [µM]	MIC ([5]; 24h) [µM]	MIC ([5]; 48h) [µM]	MIC (Candida glabrata 20/I; 24h) [µM]	MIC (Candida glabrata 20/I; 48h) [µM]
O=c1[nH]c2ccccc2c(O)c1[N+](=O)[O-] [Compound 5, 4-Hydroxy-3-nitroquinolin-2(1H)-one]	> 500	> 500	approximately twice as effective as compound 1	510	0.4052	> 500	> 500	> 500	> 500	> 500	> 500	> 500	> 500	> 500	> 500	> 500	> 500	> 500	> 500
Nc1c(O)c2ccccc2[nH]c1=O [Compound 6, 3-Amino-4-hydroxyquinolin-2(1H)-one]	> 500	> 500	–	775	0.0004	> 500	> 500	> 500	> 500	> 500	> 500	> 500	> 500	> 500	> 500	> 500	> 500	> 500	> 500
O=C(/C=C/c1ccccc1)Nc1c(O)c2ccccc2[nH]c1=O [Compound 7, (2E)-N-(4-Hydroxy-2-oxo-1,2-dihydroquinolin-3-yl)-3-phenylprop-2-enamide]	> 125	> 125	–	916	0.0128	> 125	> 125	> 125	> 125	> 125	> 125	> 125	> 125	> 125	> 125	> 125	> 125	> 125	> 125
OC(Cn1cncn1)(Cn1cncn1)c1ccc(F)cc1F [FLU, Fluconazole, reference compound]	0.24 (≈ 0.0735 µg/mL)	0.48 (≈ 0.147 µg/mL)	–	–	–	0.06 (≈ 0.0184 µg/mL)	0.12 (≈ 0.0368 µg/mL)	3.91 (≈ 1.2 µg/mL)	15.6 (≈ 4.78 µg/mL)	1.95 (≈ 0.597 µg/mL)	3.91 (≈ 1.2 µg/mL)	0.12 (≈ 0.0368 µg/mL)	> 125	> 125	> 125	> 125	> 125	0.98 (≈ 0.3 µg/mL)	3.91 (≈ 1.2 µg/mL)
